In US20240182487A1, “MACROCYCLES AND THEIR USE” (BLOSSOMHILL THERAPEUTICS, INC., priority 2020, published 2024):

Molecular target: EGFR (Δ746-750) (Homo sapiens (Human), UniProt P00533, DEL746-750)
Experiment: HotSpot radiometric kinase assay, EGFR Δ746-750
Assay type: biochemical
Details: radiometric filter-binding, 10 μM ATP

Sequence of EGFR (Δ746-750) (P00533 other isoform, or with tags, fused parts or gaps del 1-668/del 746-750 limits assumed): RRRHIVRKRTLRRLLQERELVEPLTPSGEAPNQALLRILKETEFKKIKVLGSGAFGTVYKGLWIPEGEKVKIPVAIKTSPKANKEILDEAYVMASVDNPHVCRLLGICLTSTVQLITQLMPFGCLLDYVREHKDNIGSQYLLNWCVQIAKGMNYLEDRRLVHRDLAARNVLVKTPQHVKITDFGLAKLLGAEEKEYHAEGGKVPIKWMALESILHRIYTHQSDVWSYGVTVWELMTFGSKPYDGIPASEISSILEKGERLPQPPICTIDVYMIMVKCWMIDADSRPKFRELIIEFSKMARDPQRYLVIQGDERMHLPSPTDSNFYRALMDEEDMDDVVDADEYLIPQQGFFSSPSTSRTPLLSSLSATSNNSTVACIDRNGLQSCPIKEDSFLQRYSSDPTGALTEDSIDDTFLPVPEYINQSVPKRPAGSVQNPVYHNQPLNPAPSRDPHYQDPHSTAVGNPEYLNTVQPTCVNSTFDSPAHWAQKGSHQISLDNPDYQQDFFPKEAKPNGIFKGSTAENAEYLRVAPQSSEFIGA

SMILES | IC50 [nM]
CCc1c2c(nn1C)C(=O)N(C)CCOc1c[nH]c(=O)cc1-c1cc3c(n[nH]c3cn1)/C=C/2 [Cpd. 38, (18E)-17-ethyl-13,16-dimethyl-2,12,13,16-tetrahydro-5,3-(azenometheno)dipyrazolo[3,4-f:3′,4′-j]pyrido[4,3-n][1,4]oxazacyclopentadecine-7,14(8H,11H)-dione] | 964
COC(=O)c1ccc2c(c1)OCCCOc1c(cnn1C)-c1cc3c(n[nH]c3cn1)/C=C/2 [Cpd. 67, methyl (11E)-1-methyl-19,20-dihydro-1H,8H,18H-10,7,4-(ethan[1]yl[1,2]diylidene)pyrazolo[3,4-f][1,5,9,12,13]benzodioxatriazacyclooctadecine-15-carboxylate] | 1530
COC(=O)c1ccc2c(c1)/C=C/c1n[nH]c3cnc(cc13)-c1cnn(C)c1OCCCO2 [Cpd. 68, methyl (11E)-1-methyl-19,20-dihydro-1H,8H,18H-10,7,4-(ethan[1]yl[1,2]diylidene)pyrazolo[3,4-f][1,5,9,12,13]benzodioxatriazacyclooctadecine-14-carboxylate] | 93.3
COC(=O)c1ccc2c(c1)OCCOCc1c(cnn1C)-c1cc3c(n[nH]c3cn1)/C=C/2 [Cpd. 69, methyl (11E)-1-methyl-1,18,19,21-tetrahydro-8H-10,7,4-(ethan[1]yl[1,2]diylidene)pyrazolo[3,4-f][1,4,9,12,13]benzodioxatriazacyclooctadecine-15-carboxylate] | 1000
CN(C)CCCNC(=O)c1ccc2c(c1)/C=C/c1n[nH]c3cnc(cc13)-c1cnn(C)c1OCCCO2 [Cpd. 70, (11E)-N-[3-(dimethylamino)propyl]-1-methyl-19,20-dihydro-1H,8H,18H-10,7,4-(ethan[1]yl[1,2]diylidene)pyrazolo[3,4-f][1,5,9,12,13]benzodioxatriazacyclooctadecine-14-carboxamide] | 2.9
Cn1ncc2c1OCCCOc1ccc(C(=O)N3CCCC3)cc1/C=C/c1n[nH]c3cnc-2cc13 [Cpd. 72, [(11E)-1-methyl-19,20-dihydro-1H,8H,18H-10,7,4-(ethan[1]yl[1,2]diylidene)pyrazolo[3,4-f][1,5,9,12,13]benzodioxatriazacyclooctadecin-14-yl](pyrrolidin-1-yl)methanone] | 18.3
Cn1ncc2c1OCCCOc1cc(C(=O)O)ccc1/C=C/c1n[nH]c3cnc-2cc13 [Cpd. 73, (11E)-1-methyl-19,20-dihydro-1H,8H,18H-10,7,4-(ethan[1]yl[1,2]diylidene)pyrazolo[3,4-f][1,5,9,12,13]benzodioxatriazacyclooctadecine-15-carboxylic acid] | 35.8
CN(C)CCNC(=O)c1ccc2c(c1)OCCCOc1c(cnn1C)-c1cc3c(n[nH]c3cn1)/C=C/2 [Cpd. 74, (11E)-N-[2-(dimethylamino)ethyl]-1-methyl-19,20-dihydro-1H,8H,18H-10,7,4-(ethan[1]yl[1,2]diylidene)pyrazolo[3,4-f][1,5,9,12,13]benzodioxatriazacyclooctadecine-15-carboxamide] | 4
COC(=O)c1ccc2c(c1)/C=C/c1n[nH]c3cnc(cc13)-c1cnn(C)c1COCCO2 [Cpd. 75, methyl (11E)-1-methyl-1,18,19,21-tetrahydro-8H-10,7,4-(ethan[1]yl[1,2]diylidene)pyrazolo[3,4-f][1,4,9,12,13]benzodioxatriazacyclooctadecine-14-carboxylate] | 51
CN1CCC(CNC(=O)c2ccc3c(c2)/C=C/c2n[nH]c4cnc(cc24)-c2cnn(C)c2OCCCO3)CC1 [Cpd. 76, (11E)-1-methyl-N-[(1-methylpiperidin-4-yl)methyl]-19,20-dihydro-1H,8H,18H-10,7,4-(ethan[1]yl[1,2]diylidene)pyrazolo[3,4-f][1,5,9,12,13]benzodioxatriazacyclooctadecine-14-carboxamide] | 2.2
CC(C)NC(=O)c1ccc2c(c1)OCCCOc1c(cnn1C)-c1cc3c(n[nH]c3cn1)/C=C/2 [Cpd. 77, (11E)-1-methyl-N-(propan-2-yl)-19,20-dihydro-1H,8H,18H-10,7,4-(ethan[1]yl[1,2]diylidene)pyrazolo[3,4-f][1,5,9,12,13]benzodioxatriazacyclooctadecine-15-carboxamide] | 34.6
CN1CCC(NC(=O)c2ccc3c(c2)OCCCOc2c(cnn2C)-c2cc4c(n[nH]c4cn2)/C=C/3)CC1 [Cpd. 78, (11E)-1-methyl-N-(1-methylpiperidin-4-yl)-19,20-dihydro-1H,8H,18H-10,7,4-(ethan[1]yl[1,2]diylidene)pyrazolo[3,4-f][1,5,9,12,13]benzodioxatriazacyclooctadecine-15-carboxamide] | 5.3
CN1CC[C@@H](NC(=O)c2ccc3c(c2)OCCCOc2c(cnn2C)-c2cc4c(n[nH]c4cn2)/C=C/3)C1 [Cpd. 82, (11E)-1-methyl-N-[(3R)-1-methylpyrrolidin-3-yl]-19,20-dihydro-1H,8H,18H-10,7,4-(ethan[1]yl[1,2]diylidene)pyrazolo[3,4-f][1,5,9,12,13]benzodioxatriazacyclooctadecine-15-carboxamide] | 28.3
CN1CC(NC(=O)c2ccc3c(c2)OCCCOc2c(cnn2C)-c2cc4c(n[nH]c4cn2)/C=C/3)C1 [Cpd. 83, (11E)-1-methyl-N-(1-methylazetidin-3-yl)-19,20-dihydro-1H,8H,18H-10,7,4-(ethan[1]yl[1,2]diylidene)pyrazolo[3,4-f][1,5,9,12,13]benzodioxatriazacyclooctadecine-15-carboxamide] | 34.4
CCNC(=O)c1ccc2c(c1)OCCOCc1c(cnn1C)-c1cc3c(n[nH]c3cn1)/C=C/2 [Cpd. 84, (11E)-N-ethyl-1-methyl-1,18,19,21-tetrahydro-8H-10,7,4-(ethan[1]yl[1,2]diylidene)pyrazolo[3,4-f][1,4,9,12,13]benzodioxatriazacyclooctadecine-15-carboxamide] | 240
CN1CCC(NC(=O)c2ccc3c(c2)OCCOCc2c(cnn2C)-c2cc4c(n[nH]c4cn2)/C=C/3)CC1 [Cpd. 85, (11E)-1-methyl-N-(1-methylpiperidin-4-yl)-1,18,19,21-tetrahydro-8H-10,7,4-(ethan[1]yl[1,2]diylidene)pyrazolo[3,4-f][1,4,9,12,13]benzodioxatriazacyclooctadecine-15-carboxamide] | 70
CNC(=O)c1ccc2c(c1)/C=C/c1n[nH]c3cnc(cc13)-c1cnn(C)c1OCCCO2 [Cpd. 86, (11E)-N,1-dimethyl-19,20-dihydro-1H,8H,18H-10,7,4-(ethan[1]yl[1,2]diylidene)pyrazolo[3,4-f][1,5,9,12,13]benzodioxatriazacyclooctadecine-14-carboxamide] | 15.6
CN1CC[C@@H](NC(=O)c2ccc3c(c2)OCCOCc2c(cnn2C)-c2cc4c(n[nH]c4cn2)/C=C/3)C1 [Cpd. 87, (11E)-1-methyl-N-[(3R)-1-methylpyrrolidin-3-yl]-1,18,19,21-tetrahydro-8H-10,7,4-(ethan[1]yl[1,2]diylidene)pyrazolo[3,4-f][1,4,9,12,13]benzodioxatriazacyclooctadecine-15-carboxamide] | 34.6
CN1CC[C@H](NC(=O)c2ccc3c(c2)OCCCOc2c(cnn2C)-c2cc4c(n[nH]c4cn2)/C=C/3)C1 [Cpd. 88, (11E)-1-methyl-N-[(3S)-1-methylpyrrolidin-3-yl]-19,20-dihydro-1H,8H,18H-10,7,4-(ethan[1]yl[1,2]diylidene)pyrazolo[3,4-f][1,5,9,12,13]benzodioxatriazacyclooctadecine-15-carboxamide] | 24.6
